Experiments:
human liver microsomes = assay: Kinetic analysis of ribociclib metabolite formation in HLM and enzyme contribution; format: in vitro ADME; details: metabolite formation kinetics
Experimental: (§1) In vitro incubations were carried out in 100‐mM potassium phosphate buffer (pH 7.4) and 5‐mM MgCl2 with a total volume of 200 µL. Substrate and either human liver microsomes (HLM, BD Biosciences, mixed gender pool of n = 50) or recombinant human enzymes (BD Biosciences) were added and pre‐incubated for 3 minutes at 37°C. The reaction was started by addition of a fresh solution of NADPH (1 mmol/L final concentration). The samples were incubated at 37°C with agitation of 500 rpm. For incubations with CYP2A6, CYP2C9, CYP2C18, and CYP4A11, the phosphate buffer was replaced by TRIS buffer (100 mmol/L, pH 7.4) and for flavin‐containing monooxygenases (FMOs), a glycine buffer (50 mM, pH 9.5) was used.
(§2) The enzymatic reaction was stopped and the protein was precipitated by addition of an equal volume of methanol. […] The supernatant was withdrawn. Aliquots were analyzed by LSC and the supernatant was diluted with water to obtain a final solution containing less than 20% of the organic solvent. For samples of low substrate concentration, supernatants were evaporated to dryness under nitrogen, then re‐suspended in water containing less than 20% of methanol. Samples were analyzed by HPLC combined with radiodetection.
(§3) Km and Vmax parameters were calculated by using SigmaPlot Version 8.0, Enzyme Kinetics module Version 1.1 software (SPSS Science Inc, Chicago, IL, USA). The intrinsic clearance was calculated by the equation: CLint = Vmax/Km.
(§4) The intrinsic clearances (Vmax/Km) of each pathway were determined by enzyme kinetics.

FMO3 = assay: as above; format: in vitro ADME, human; details: both sexes, human, pooled human liver microsomes, pH 7.4; HLM; read-out: CLint attributed to FMO3
Experimental: as §1, §2, §3, §4

CYP3A4 = assay: as above; format: in vitro ADME, human; details: both sexes, human, pooled human liver microsomes, pH 7.4; HLM; read-out: CLint attributed to CYP3A4
Experimental: as §1, §2, §3, §4

[1] = as above; format: in vitro ADME, human; details: both sexes, human, pooled human liver microsomes, pH 7.4; HLM, sum of metabolite formation; read-out: CLint, Total of all pathways
Experimental: as §1, §2, §3, §4

[2] = tested on: hepatic P450 isoenzymes (total); assay: Biotransformation by a panel of 17 recombinant human CYPs and three FMOs; format: in vitro ADME; details: human, recombinant human CYPs, scaled to human liver microsomes, pH 7.4; sum over CYPs, based on recombinant enzyme data; read-out: Rel.Clint,u in HLM, total of hepatic P450 isoenzymes
Experimental: as §1
(§5) The enzymatic reaction was stopped and the protein was precipitated by addition of an equal volume of methanol. After 30 min at −80°C, the samples were centrifuged at 30'000 x g for 15 min. The supernatant was withdrawn. Aliquots were analyzed by LSC and the supernatant was diluted with water to obtain a final solution containing less than 20% of the organic solvent. For samples of low substrate concentration, supernatants were evaporated to dryness under nitrogen, then re‐suspended in water containing less than 20% of methanol. Samples were analyzed by HPLC combined with radiodetection.
(§6) The relative contribution of CYP enzymes to oxidative hepatic metabolism was determined using their Clint values multiplied by the unbound fraction in microsomes and their abundances in human liver microsomes. ^15 Among the hepatic P450 enzymes, CYP3A4 contributed predominantly (97%) to metabolism in human liver microsomes (Table 1) with negligible fraction metabolized by CYP1A2 (1.1%), CYP2J2 (0.8%), and CYP3A5 (1.2%).

[3] = tested on: recombinant human CYPs and FMOs; assay: as above; format: in vitro ADME
Experimental: as §1, §5, §6

[4] = Rat ADME study: excretion, mass balance, metabolite profiling with radiolabeled ribociclib; format: in vivo
Experimental: ADME studies (including QWBA in pigmented and non‐pigmented rats) using radiolabeled ribociclib were conducted in rat and dog. Relevant institutional and national guides for the care and use of laboratory animals were followed.
Metabolite profiling was conducted on plasma, urine, bile, and feces samples in the rat and dog ADME studies, and further metabolite profiling on plasma and milk was conducted in a dedicated rat milk excretion study.
Plasma samples obtained from these studies were extracted with equal volumes of acetonitrile. Additional extractions of the protein pellet with acetonitrile and/or acetone were conducted as needed to maximize radioactivity recovery. Feces samples were initially extracted with two to four volumes of acetonitrile. Additional extractions of the pellet following centrifugation and removal of supernatant were conducted with acetonitrile and/or acetone as needed to maximize radioactivity recovery. Urine and bile samples were analyzed directly following centrifugation. Radioactivity recoveries following the centrifugation step were measured by LSC. Milk samples were extracted with two volumes of acetonitrile, following centrifugation and removal of supernatant, the pellets were re‐suspended in 100 µL of water and re‐extracted with 200 µL acetonitrile.
Metabolite profiling in the ADME studies was conducted using liquid chromatography‐mass spectrometry. Radioactivity profiles were generated by diversion of the majority of the post‐column flow into 96‐well yttrium silicate scintillation‐coated plates (Deepwell Lumaplates; Perkin Elmer Life and Analytical Sciences Inc), by means of Gilson FC204 fraction collectors (Gilson). Metabolites were identified by mass spectrometry (Waters QTOF operating under MassLynx 4.1) and, where feasible, by comparison with authentic reference standards.

[5] = target: heat-treated human liver microsomes (Homo sapiens, UniProt P08684); assay: Enzyme kinetics in heat-treated HLM (FMO inactivation); format: in vitro ADME; details: human, microsomes
Experimental: as §1
(§7) The enzymatic reaction was stopped and the protein was precipitated by addition of an equal volume of methanol. After 30 min at −80°C, the samples were centrifuged at 30'000 x g for 15 min. The supernatant was withdrawn. Aliquots were analyzed by LSC and the supernatant was diluted with water to obtain a final solution containing less than 20% of the organic solvent. For samples of low substrate concentration, supernatants were evaporated to dryness under nitrogen, then re‐suspended in water containing less than 20% of methanol. Samples were analyzed by HPLC combined with radiodetection. […]

[6] = tested on: heat-treated human liver microsomes (Homo sapiens); assay: as above; format: in vitro ADME; details: heated vs non-heated control HLM
Experimental: as §1, §7

[7] = design: method as in earlier work; details: humans, total of central and peripheral volume; ref 22 (Lu et al, manuscript submitted); cited from earlier work
[8] = rat, oral dosing of radiolabeled ribociclib

heat-treated human liver microsomes (Homo sapiens), sequence (P08684 2-503): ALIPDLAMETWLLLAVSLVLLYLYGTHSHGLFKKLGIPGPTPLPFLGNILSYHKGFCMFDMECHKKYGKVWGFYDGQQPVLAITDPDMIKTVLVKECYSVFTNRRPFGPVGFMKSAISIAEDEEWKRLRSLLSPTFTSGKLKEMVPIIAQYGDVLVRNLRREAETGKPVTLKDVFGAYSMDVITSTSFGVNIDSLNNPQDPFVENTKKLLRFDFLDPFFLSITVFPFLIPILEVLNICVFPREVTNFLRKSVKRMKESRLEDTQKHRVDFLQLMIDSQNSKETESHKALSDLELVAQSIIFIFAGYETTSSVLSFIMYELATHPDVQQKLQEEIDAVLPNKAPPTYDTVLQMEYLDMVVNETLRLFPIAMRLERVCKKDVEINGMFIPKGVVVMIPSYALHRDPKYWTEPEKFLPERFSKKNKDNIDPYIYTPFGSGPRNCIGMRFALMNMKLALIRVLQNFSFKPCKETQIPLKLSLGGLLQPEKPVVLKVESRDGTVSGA
heat-treated human liver microsomes, sequence (P08684 2-503): as above

## CN(C)C(=O)c1cc2cnc(Nc3ccc(N4CCNCC4)cn3)nc2n1C1CCCC1 [ribociclib, Ribociclib]
Human liver microsomes
  fm (Rel. Clint), CYP3A4 share of oxidative metabolism in HLM: 74%
  fm (Rel. Clint), FMO3 / hepatic FMO share of oxidative metabolism in HLM: 26%
FMO3
  microsomal CLint: 8.19 µL/min/mg
CYP3A4
  microsomal CLint: 23.3 µL/min/mg
[1]
  microsomal CLint: 31.5 µL/min/mg
[2]
  microsomal CLint: 49.2 µL/min/mg
[3]; CYP1A2, CYP3A5, FMO3, and FMO5, 0.75 and 20 µmol/L, 15 min
  turnover by recombinant enzymes: Low metabolic activities
[3]; CYP1B1, CYP2A6, CYP2B6, CYP2C8, CYP2C9, CYP2C18, CYP2C19, CYP2D6, CYP2E1, CYP4A11, and CYP4F2
  turnover by recombinant enzymes: No metabolic activities were detected
[3]; CYP3A4, CYP2J2, CYP1A1, FMO1, and FM03, 0.75 and 20 µmol/L, 15 min
  turnover by recombinant enzymes: high turnover
[4]; rat
  Recovery of radioactivity in mass balance study: approximately 90%
[4]; rat ADME study, derived from AUC of total radiolabeled components after i.v. and p.o. dosing
  Absorption: 66%
[4]; rat, i.v.
  dose eliminated in bile (radioactivity): 61.4 % of dose
  ribociclib in feces of bile duct-cannulated rats: 8 % of the dose
  unchanged ribociclib recovered in bile: 1 % of the dose
[4]; [8]
  radioactivity found in feces: 84.0%
  radioactivity found in urine: 5.9%
[4]; rat, p.o.
  ribociclib in feces: 22.4 % of the oral dose
  unchanged ribociclib in urine: 2.7 % of the dose
[5]
  Ki at 0.25 h: 328 µM
[6]
  FMO metabolism as share of intrinsic clearance in HLM: about 15%
[7]
  apparent volume of distribution at steady state: 1090 L
